Experimental data published in US20070148110A1, “Aqueous-alcoholic depigmenting gels comprising mequinol and adapalene” (GALDERMA RESEARCH & DEVELOPMENT, priority 2004, published 2007).

System: skin of the tail of the SKH2 mouse
Experiment: Depigmenting activity on the skin of the tail of the SKH2 mouse
Type: in vivo
Design: key to depigmentation score: 0: natural pigmentation; −1: slight depigmentation; −2: moderate depigmentation; −3: marked depigmentation; −4: total depigmentation
Details: adapalene 0.1%; for depigmentation score: 4 weeks topical; for depigmenting effect: topical, after 4 weeks, mequinol 2%
Protocol: The purpose of the present study is to evaluate the depigmenting activity of a composition comprising either (i) 2% of mequinol, (ii) 0.1% of adapalene or (iii) the combination of both of them (composition according to the invention) on the skin of the tail of the SKH2 mouse after 4 weeks of topical application.
The two formulations gel and gel-cream are also compared. The two formulations (20 μl) are applied topically on the tails of SKH2 mice separated into two groups (female mice about 9 weeks old) at the rate of one application per day for 5 days over a period of 4 weeks.
Evaluation is based on various clinical observations: once a week, the pigmentation is evaluated as a score on a scale from 0 to 4. The basis of scoring is as follows: • 0: natural pigmentation Depigmentation scale: scores −1 to −4 • −1: slight depigmentation • −2: moderate depigmentation • −3: marked depigmentation • −4: total depigmentation

Row | Compound | depigmentation score (gel formulation) | depigmentation score (gel-cream formulation) | depigmenting effect
1 | COc1ccc(-c2ccc3cc(C(=O)O)ccc3c2)cc1C12CC3CC(CC(C3)C1)C2 [Adapalene, 6-[3-(1-adamantyl)-4-methoxyphenyl]-2-naphthoic acid] | 0 | 0 | does not have a depigmenting effect
2 | COc1ccc(O)cc1 [Mequinol, 4-hydroxyanisole] | – | – | significant depigmenting effect
